Reference: patent publication US7772241B2, “Variolin derivatives and their use as antitumor agents” (Pharma Mar S.A., priority 2001, dated 2010)

Legend:
LoVo = experiment: Inhibition of cells growth by colorimetric (SRB) assay, LoVo; conditions: for GI50 / CC50: Homo sapiens, LoVo, 48 h; for GI50: read-out: GI50 LOVO, SRB assay, 48 hours exposure; for CC50: read-out: LC50 LOVO, SRB assay, 48 hours exposure; for TGI LOVO: SRB assay, 48 hours exposure
Text: (§1) The finality of these assays is to interrupt the growth of a “in vitro” tumor cell culture by means a continued exhibition of the cells to the sample to be testing.
(§2) This form of the assay employs 96 well cell culture microplates of 9 mm diameter (Faircloth, 1988; Mosmann, 1983). Most of the cell lines are obtained from American Type Culture Collection (ATCC) derived from different human cancer types.
(§3) Cells are maintained in RPMI 1640 10% FBS, supplemented with 0.1 g/l penicillin and 0.1 g/l streptomycin sulphate and then incubated at 37° C., 5% CO2 and 98% humidity. For the experiments, cells were harvested from subconfluent cultures using trypsin and resuspended in fresh medium before plating.
(§4) Cells are seeded in 96 well microtiter plates, at 5×10^3 cells per well in aliquots of 195 μl medium, and they are allowed to attach to the plate surface by growing in drug free medium for 18 hours. Afterward, samples are added in aliquots of 5 μl in a ranging from 10 to 10^−8 μg/ml, dissolved in DMSO/EtOH/PBS (0.5:0.5:99). After 48 hours exposure, the antitumor effect are measured by the SRB methodology: cells are fixed by adding 50 μl of cold 50% (wt/vol) trichloroacetic acid (TCA) and incubating for 60 minutes at 4° C. Plates are washed with deionized water and dried. One hundred μl of SRB solution (0.4% wt/vol in 1% acetic acid) is added to each microtiter well and incubated for 10 minutes at room temperature. Unbound SRB is removed by washing with 1% acetic acid. Plates are air dried and bound stain is solubilized with Tris buffer. Optical densities are read on a automated spectrophotometric plate reader at a single wavelength of 490 nm.
(§5) The values for mean +/−SD of data from triplicate wells are calculated. Some parameters for cellular responses can be calculated: GI=growth inhibition, TGI=total growth inhibition (cytostatic effect) and LC=cell killing (cytotoxic effect).

SK-OV-3 = experiment: Inhibition of cells growth by colorimetric (SRB) assay, SK-OV-3; conditions: for GI50 / CC50: Homo sapiens, SK-OV-3, 48 h; for GI50: read-out: GI50 SKOV-3, SRB assay, 48 hours exposure; for CC50: read-out: LC50 SKOV-3, SRB assay, 48 hours exposure; for TGI SKOV-3: SRB assay, 48 hours exposure
Text: as §1, §2, §3, §4, §5

LoVo-Dox = experiment: Inhibition of cells growth by colorimetric (SRB) assay, LoVo-Dox; conditions: for GI50 / CC50: Homo sapiens, 48 h; for GI50: read-out: GI50 LOVO-DOX, SRB assay, 48 hours exposure; for CC50: read-out: LC50 LOVO-DOX, SRB assay, 48 hours exposure; for TGI LOVO-DOX: SRB assay, 48 hours exposure
Text: as §1, §2, §3, §4, §5

IGROV-ET = experiment: Inhibition of cells growth by colorimetric (SRB) assay, IGROV-ET; conditions: for GI50 / CC50: Homo sapiens, 48 h; for GI50: read-out: GI50 IGROV-ET, SRB assay, 48 hours exposure; for CC50: read-out: LC50 IGROV-ET, SRB assay, 48 hours exposure; for TGI IGROV-ET: SRB assay, 48 hours exposure
Text: as §1, §2, §3, §4, §5

LNCaP = experiment: Inhibition of cells growth by colorimetric (SRB) assay, LNCaP; conditions: for GI50 / CC50: Homo sapiens, LNCaP, 48 h; for GI50: read-out: GI50 LN-caP, SRB assay, 48 hours exposure; for CC50: read-out: LC50 LN-caP, SRB assay, 48 hours exposure; for TGI LN-caP: SRB assay, 48 hours exposure
Text: as §1, §2, §3, §4, §5

DU-145 = experiment: Inhibition of cells growth by colorimetric (SRB) assay, DU-145; conditions: for GI50 / CC50: Homo sapiens, DU-145, 48 h; for GI50: read-out: GI50 DU-145, SRB assay, 48 hours exposure; for CC50: read-out: LC50 DU-145, SRB assay, 48 hours exposure; for TGI DU-145: SRB assay, 48 hours exposure
Text: as §1, §2, §3, §4, §5

SK-MEL-28 = experiment: Inhibition of cells growth by colorimetric (SRB) assay, SK-MEL-28; conditions: for GI50 / CC50: Homo sapiens, SK-MEL-28, 48 h; for GI50: read-out: GI50 MEL-28, SRB assay, 48 hours exposure; for CC50: read-out: LC50 MEL-28, SRB assay, 48 hours exposure; for TGI MEL-28: SRB assay, 48 hours exposure
Text: as §1, §2, §3, §4, §5

K-562 = experiment: Inhibition of cells growth by colorimetric (SRB) assay, K-562; conditions: for GI50 / CC50: Homo sapiens, K562, 48 h; for GI50: read-out: GI50 K-562, SRB assay, 48 hours exposure; for CC50: read-out: LC50 K-562, SRB assay, 48 hours exposure; for TGI K-562: SRB assay, 48 hours exposure
Text: as §1, §2, §3, §4, §5

PANC-1 = experiment: Inhibition of cells growth by colorimetric (SRB) assay, PANC-1; conditions: for GI50 / CC50: Homo sapiens, PANC-1, 48 h; for GI50: read-out: GI50 PANC-1, SRB assay, 48 hours exposure; for CC50: read-out: LC50 PANC-1, SRB assay, 48 hours exposure; for TGI PANC-1: SRB assay, 48 hours exposure
Text: as §1, §2, §3, §4, §5

HT-29 = experiment: Inhibition of cells growth by colorimetric (SRB) assay, HT-29; conditions: for GI50 / CC50: Homo sapiens, HT-29, 48 h; for GI50: read-out: GI50 HT-29, SRB assay, 48 hours exposure; for CC50: read-out: LC50 HT-29, SRB assay, 48 hours exposure; for TGI HT-29: SRB assay, 48 hours exposure
Text: as §1, §2, §3, §4, §5

A-549 = experiment: Inhibition of cells growth by colorimetric (SRB) assay, A-549; conditions: for GI50 / CC50: Homo sapiens, A549, 48 h; for GI50: read-out: GI50 A-549, SRB assay, 48 hours exposure; for CC50: read-out: LC50 A-549, SRB assay, 48 hours exposure; for TGI A-549: SRB assay, 48 hours exposure
Text: as §1, §2, §3, §4, §5

IGROV-1 = experiment: Inhibition of cells growth by colorimetric (SRB) assay, IGROV-1; conditions: for GI50 / CC50: Homo sapiens, IGROV-1, 48 h; for GI50: read-out: GI50 IGROV, SRB assay, 48 hours exposure; for CC50: read-out: LC50 IGROV, SRB assay, 48 hours exposure; for TGI IGROV: SRB assay, 48 hours exposure
Text: as §1, §2, §3, §4, §5

## Nc1nccc2c(-c3cccc([N+](=O)[O-])c3)c3cccnc3n12 [Compound 64]
LoVo
  GI50: 23.3 µM
  CC50: 32.8 µM
  TGI LOVO: 3.28E−05
SK-OV-3
  GI50: 22.3 µM
  CC50: 32.8 µM
  TGI SKOV-3: 3.28E−05
LoVo-Dox
  GI50: 22.7 µM
  CC50: 32.8 µM
  TGI LOVO-DOX: 3.28E−05
IGROV-ET
  GI50: 18.9 µM
  CC50: 32.8 µM
  TGI IGROV-ET: 3.28E−05
LNCaP
  GI50: 2.84 µM
  CC50: 19.9 µM
  TGI LN-caP: 7.89E−06
DU-145
  GI50: 31 µM
  CC50: 32.8 µM
  TGI DU-145: 3.28E−05
SK-MEL-28
  GI50: 21.7 µM
  CC50: 32.8 µM
  TGI MEL-28: 3.28E−05
K-562
  GI50: 9.24 µM
  CC50: 32.8 µM
  TGI K-562: 2.47E−05
PANC-1
  GI50: 20.9 µM
  CC50: 32.8 µM
  TGI PANC-1: 3.28E−05
HT-29
  GI50: 32.8 µM
  CC50: 32.8 µM
  TGI HT-29: 3.28E−05
A-549
  GI50: 31.6 µM
  CC50: 32.8 µM
  TGI A-549: 3.28E−05
IGROV-1
  GI50: 14.4 µM
  CC50: 32.8 µM
  TGI IGROV: 3.28E−05

## Nc1nccc2c(-c3ccncn3)c3c(OCc4ccccc4)ccnc3n12 [Compound 98]
LoVo
  GI50: 5.02 µM
  CC50: 27.1 µM
  TGI LOVO: 1.51E−05
SK-OV-3
  GI50: 10.6 µM
  CC50: 27.1 µM
  TGI SKOV-3: 2.19E−05
LoVo-Dox
  GI50: 5.92 µM
  CC50: 27.1 µM
  TGI LOVO-DOX: 1.42E−05
IGROV-ET
  GI50: 7.22 µM
  CC50: 20.1 µM
  TGI IGROV-ET: 1.21E−05
LNCaP
  GI50: 1.85 µM
  CC50: 23.9 µM
  TGI LN-caP: 6.49E−06
DU-145
  GI50: 5.94 µM
  CC50: 27.1 µM
  TGI DU-145: 1.41E−05
SK-MEL-28
  GI50: 7.52 µM
  CC50: 21.2 µM
  TGI MEL-28: 1.26E−05
K-562
  GI50: 7.82 µM
  CC50: 25.8 µM
  TGI K-562: 1.42E−05
PANC-1
  GI50: 5.62 µM
  CC50: 19 µM
  TGI PANC-1: 1.03E−05
HT-29
  GI50: 15.6 µM
  CC50: 27.1 µM
  TGI HT-29: 2.71E−05
A-549
  GI50: 15.3 µM
  CC50: 27.1 µM
  TGI A-549: 2.71E−05
IGROV-1
  GI50: 8.96 µM
  CC50: 26.8 µM
  TGI IGROV: 1.55E−05

## Nc1nccc(-c2c3c(Cl)ccnc3n3c(N)nccc23)n1 [Compound 113]
LoVo
  GI50: 1.26 µM
  CC50: 32.1 µM
  TGI LOVO: 7.83E−06
SK-OV-3
  GI50: 1.37 µM
  CC50: 32.1 µM
  TGI SKOV-3: 5.39E−06
LoVo-Dox
  GI50: 2.35 µM
  CC50: 32.1 µM
  TGI LOVO-DOX: 1.18E−05
IGROV-ET
  GI50: 1.3 µM
  CC50: 32.1 µM
  TGI IGROV-ET: 6.00E−06
LNCaP
  GI50: 1.57 µM
  CC50: 15.6 µM
  TGI LN-caP: 2.39E−06
DU-145
  GI50: 1.51 µM
  CC50: 32.1 µM
  TGI DU-145: 6.26E−06
SK-MEL-28
  GI50: 2.12 µM
  CC50: 17.6 µM
  TGI MEL-28: 6.29E−06
K-562
  GI50: 6.16 µM
  CC50: 32.1 µM
  TGI K-562: 2.00E−05
PANC-1
  GI50: 1.11 µM
  CC50: 32.1 µM
  TGI PANC-1: 2.76E−05
HT-29
  GI50: 4.72 µM
  CC50: 32.1 µM
  TGI HT-29: 3.21E−05
A-549
  GI50: 4.3 µM
  CC50: 21.4 µM
  TGI A-549: 9.59E−06
IGROV-1
  GI50: 2.94 µM
  CC50: 24.1 µM
  TGI IGROV: 8.53E−06
